Data set [1] concerns PCY1. Kind of data set: PCY1 macrocyclisation of hybrid precursor peptides containing non-amino acids (Maldi). To be noted: 16 h incubation with PCY1, Maldi spectrum. The data set is classed as biochemical, Saponaria vaccaria. As to the method: All kinetic measurements (activity tests, progress curves and initial-rate experiments) were performed as discontinuous assays analyzing samples via LC/MS or MALDI (10-mer activity test). Reactions were performed in 20 mM Tris pH 8.5, 100 mM NaCl, 5 mM DTT (for progress curves 0.2 mg mL-1 BSA was included).17 Reactions were performed at 30° C. and at various time points 50 μL samples were quenched with 20 μL of 6% (v/v) TFA. Samples (50 μL) were loaded onto a ZORBAX SBC18, 5 μm, 9.4 mm×50 mm (Agilent) column connected to an Agilent LC-MS instrument (G6130B Single Quad, Agilent Technologies). Reactants were separated from products using a gradient from A (H2O with 0.1% formic acid) to 80% B (acetonitrile), at a rate of 1.5 mL/min for 8.75 min. For data analysis, ion count peaks and UV absorbance peaks were integrated using Agilent ChemStation software. For data analysis involving quantitative mass spec integration, calibration curves with macrocyclic peptide product were performed in triplicate in order to linearly correlate ion counts to cyclic product concentration. Data fitting and plotting was performed with Prism 6. […]

The test system of the next data set is T1, 25mer substrate.
T1 sequence: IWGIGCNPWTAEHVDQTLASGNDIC

Data set [2] deals with T2, 13mer truncated substrate.
T2 sequence: IWGIGCNPWTAEH

Data set [3] relates to T3, 14mer truncated substrate.
T3 sequence: IWGIGCNPWTAEHV

Data set [4] deals with PCY1. The note with it: PCY1 extracted from S. vaccaria seeds; cited from earlier work.
Data set [5] deals with PCY1. Briefly: LC/MS time course of macrocyclisation by PCY1. The data set is classed as biochemical, Saponaria vaccaria. The note with it: 200 μM substrate, 3.6 μM PCY1. As to the method:
(§1) All kinetic measurements (activity tests, progress curves and initial-rate experiments) were performed as discontinuous assays analyzing samples via LC/MS or MALDI (10-mer activity test). Reactions were performed in 20 mM Tris pH 8.5, 100 mM NaCl, 5 mM DTT (for progress curves 0.2 mg mL-1 BSA was included).17 Reactions were performed at 30° C. and at various time points 50 μL samples were quenched with 20 μL of 6% (v/v) TFA. Samples (50 μL) were loaded onto a ZORBAX SBC18, 5 μm, 9.4 mm×50 mm (Agilent) column connected to an Agilent LC-MS instrument (G6130B Single Quad, Agilent Technologies). Reactants were separated from products using a gradient from A (H2O with 0.1% formic acid) to 80% B (acetonitrile), at a rate of 1.5 mL/min for 8.75 min. For data analysis, ion count peaks and UV absorbance peaks were integrated using Agilent ChemStation software. For data analysis involving quantitative mass spec integration, calibration curves with macrocyclic peptide product were performed in triplicate in order to linearly correlate ion counts to cyclic product concentration. Data fitting and plotting was performed with Prism 6.
PCY1 extracted from S. vaccaria seeds has been previously described to have a turnover number of ˜1 h^−1 for PresegA1.^17 The enzyme produced heterologously in E. coli was evaluated by LC/MS-based time course experiments macrocyclizing 200 μM of PresegA1, PresegB1 or PresegF1 with 3.6 μM PCY1. […] We chose to investigate the slowest and fastest substrate by steady-state kinetics using an LC/MS assay and UV280 nm quantification. […] Under the ITC conditions, the measured kcat (0.14±0.01 s^−1) was a factor of three lower than the LC/MS derived values. […] Therefore, we resorted to an LC/MS assay followed by quantification using mass ion counts, relying on a calibration curve employing the macrocyclic peptide product as a standard (FIG. 2b).

A further data set has as its target PCY1:S562A. Briefly: ITC equilibrium binding to PCY1:S562A. To be noted: ITC, 25° C. On the set-up: species or system Saponaria vaccaria. As to the method:
(§2) All PCY1 samples were buffer-exchanged or solubilized into buffer F and further diluted in the same batch of buffer F, in order to minimize buffer mismatches. ITC binding experiments were performed using a cell solution containing PCY1:S562A and a titrant solution with each peptide used. […] The measurements were performed at a stir speed of 750 rpm at 25° C. using a reference power of 10 μcal/s, except for A1-NH2 (5 μcal/s). A buffer titration control in which peptide was titrated into buffer was performed for each experiment. Data processing, fitting to a non-linear one-site binding model, and data plotting was performed using MicroCal PEAQ ITC analysis software (Malvern). […] The measurement was performed in buffer at 30° C., at 750 rpm using a reference power of 5 μcal/s.

Data set [6] relates to PCY1. Briefly: Single injection kinetic ITC with PCY1. It counts as biochemical, Saponaria vaccaria. The note with it: 30° C. On the procedure:
as §2, with “used. All peptides were used at 200 μM except for presegetalin A1-NH2 (700 μM).” for “used.”

For data set [7], the system named is PCY1. Briefly: LC/MS steady-state kinetics of macrocyclisation by PCY1. It counts as biochemical, Saponaria vaccaria. As to the method: as §1
PCY1 extracted from S. vaccaria seeds has been previously described to have a turnover number of ˜1 h^−1 for PresegA1.^17 The enzyme produced heterologously in E. coli was evaluated by LC/MS-based time course experiments macrocyclizing 200 μM of PresegA1, PresegB1 or PresegF1 with 3.6 μM PCY1. These substrates were chosen as they produce 6, 5 and 9 residue macrocycles, respectively, show variability in the length of the C-terminal tail sequence, and have a different C-terminal core residue (proline in PresegF1, alanine in the other two) (FIG. 1b). PresegB1 was completely macrocyclized in ˜30 min, PresegA1 in ˜50 min and PresegF1 in >3 h (FIG. 2a). We chose to investigate the slowest and fastest substrate by steady-state kinetics using an LC/MS assay and UV280 nm quantification. […] Under the ITC conditions, the measured kcat (0.14±0.01 s^−1) was a factor of three lower than the LC/MS derived values. […] Therefore, we resorted to an LC/MS assay followed by quantification using mass ion counts, relying on a calibration curve employing the macrocyclic peptide product as a standard (FIG. 2b).

The target in data set [8] is T4, GmPOPB_S577A (Galerina marginata, UniProt H2E7Q8, S577A).
T4 construct: His-tag (TEV-cleavable) (cleaved yes); made in house; host or cells: E. coli BL21(DE3)
T4 sequence (H2E7Q8 1-730 S577A): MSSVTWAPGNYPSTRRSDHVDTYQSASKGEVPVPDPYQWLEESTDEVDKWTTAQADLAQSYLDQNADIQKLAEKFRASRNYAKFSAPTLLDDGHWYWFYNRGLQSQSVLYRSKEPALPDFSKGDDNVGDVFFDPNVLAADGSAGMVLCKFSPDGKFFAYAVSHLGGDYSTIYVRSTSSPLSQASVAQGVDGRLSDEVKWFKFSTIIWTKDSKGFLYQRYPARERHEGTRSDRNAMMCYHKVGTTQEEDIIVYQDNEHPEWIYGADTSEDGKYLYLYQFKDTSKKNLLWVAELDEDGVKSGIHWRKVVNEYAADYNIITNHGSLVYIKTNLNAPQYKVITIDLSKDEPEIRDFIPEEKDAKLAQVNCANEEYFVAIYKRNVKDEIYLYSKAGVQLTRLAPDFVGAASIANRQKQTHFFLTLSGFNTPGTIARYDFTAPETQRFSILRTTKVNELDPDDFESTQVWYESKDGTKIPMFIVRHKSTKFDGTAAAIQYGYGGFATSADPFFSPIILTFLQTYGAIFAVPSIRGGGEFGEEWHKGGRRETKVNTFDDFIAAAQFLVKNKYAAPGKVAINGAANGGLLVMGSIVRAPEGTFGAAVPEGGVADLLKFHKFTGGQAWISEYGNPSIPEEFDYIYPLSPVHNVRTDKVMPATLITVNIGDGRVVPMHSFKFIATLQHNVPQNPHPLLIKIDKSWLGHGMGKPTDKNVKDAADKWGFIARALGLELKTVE
The note with it: previously shown; cited from earlier work.

The target of data set [9] is T4, GmPOPB_S577A. Briefly: ITC binding to inactive mutant GmPOPB_S577A.
The test system of a further data set is PresegB1. Briefly: Activity test of PCY1 variants with PresegB1 as substrate. It counts as biochemical, Saponaria vaccaria.
The target in data set [10] is T5, GmPOPB_S577A (Galerina marginata), H2E7Q8.
T5 chain: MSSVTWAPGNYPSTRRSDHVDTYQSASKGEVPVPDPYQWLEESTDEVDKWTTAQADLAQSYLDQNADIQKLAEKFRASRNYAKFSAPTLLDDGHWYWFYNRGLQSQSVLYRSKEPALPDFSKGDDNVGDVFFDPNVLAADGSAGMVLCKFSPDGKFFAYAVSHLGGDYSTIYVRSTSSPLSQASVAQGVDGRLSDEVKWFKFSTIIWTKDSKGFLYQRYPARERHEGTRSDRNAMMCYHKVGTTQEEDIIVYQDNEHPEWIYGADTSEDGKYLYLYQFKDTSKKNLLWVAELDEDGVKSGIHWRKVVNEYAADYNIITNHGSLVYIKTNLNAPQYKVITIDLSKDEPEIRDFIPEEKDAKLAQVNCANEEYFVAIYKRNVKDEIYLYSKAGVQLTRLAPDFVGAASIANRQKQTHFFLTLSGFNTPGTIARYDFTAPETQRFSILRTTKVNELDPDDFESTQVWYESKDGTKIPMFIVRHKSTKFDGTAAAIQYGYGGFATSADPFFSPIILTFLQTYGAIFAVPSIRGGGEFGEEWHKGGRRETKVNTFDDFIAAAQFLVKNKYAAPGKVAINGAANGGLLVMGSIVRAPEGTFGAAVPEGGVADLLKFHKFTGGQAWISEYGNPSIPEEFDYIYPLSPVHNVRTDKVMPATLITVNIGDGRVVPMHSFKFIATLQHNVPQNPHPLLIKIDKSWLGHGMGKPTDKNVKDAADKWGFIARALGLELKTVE
Briefly: ITC, peptide titrated into GmPOPB_S577A, 20 C. (In ITC the heat of successive injections is recorded.)

No end group written: not given here.

Take FSA-8Aoc-SKPIQT-NH2: in the data set on PCY1 [1], the conversion rate overnight entry is recorded as “around 50%”.
On to “GmPOPB (Galerina marginata POPB), wild type”, for which the “Km, Michaelis-Menten kinetics of macrocyclisation” value in the data set on 25mer substrate was “the 25mer substrate (50 µM)”; in [2] it was “the 13mer substrate has a Km (25 µM)”; in data set [3] it was “the 14mer possesses higher Km (380 µM)”.
By Kd is commonly meant the concentration at which binding is half-saturated. With “PresegA1: native linear PCY1 substrate presegetalin A1; produces a 6 residue macrocycle (GVPVWAFQAKDVENASAPV; PresegA1)”, the turnover number in the data set on PCY1 [4] is about 1 h⁻¹. In addition, the “time until completely macrocyclized” value with PCY1 [5] is given as about 50 min. In addition, the Kd on PCY1:S562A is about 200 nM.
Broadly, the Km is the concentration of substrate that gives half-maximal velocity. In the case of “PresegB1: native linear PCY1 substrate presegetalin B1; produces a 5 residue macrocycle (GVAWAFQAKDVENASAPV)”, the “kcat (table head prints kout)” value in the data set on PCY1 [6] was determined as 0.14 ± 0.01 s⁻¹; with PCY1 [7] (LC/MS (UV280 nm), 30° C.), 0.37 ± 0.02 s⁻¹. The Km amounted to 0.25 ± 0.01 µM with PCY1 [6] (read-out: Km (table head prints Kin)) and 0.45 ± 0.17 µM with PCY1 [7] (LC/MS (UV280 nm), 30° C., read-out: Km (table head prints Kin)). Moreover, the “time until completely macrocyclized” value in the data set on PCY1 [5] is reported as about 30 min. Also, on PCY1:S562A, the Kd is about 200 nM. For the same molecule, in the data set with PCY1 [7] (steady state kinetics, FIG. 7), the “processing by PCY1 (in words)” value is given as “rapidly processed”.
Regarding VGAG-8Aoc-FPIQT-NH2, in the data set with PCY1 [1], the “conversion overnight (in words)” value is recorded as “almost entirely converted”.
As to “WTAEHVDQTLASGNDIC [17mer-recogSeq, reference compound]”, the “difference in ΔG between the 17mer recognition sequence and the 25mer peptide” value on GmPOPB_S577A [8] is 1.34 kcal/mol. The same molecule came in with a Kd on GmPOPB_S577A [9] of 430 ± 10 nM.

B1: S562A: PCY1 variant (protein)
chain: MATSGFSKPLHYPPVRRDETVVDDYFGVKVADPYRWLEDPNSEETKEFVDNQEKLANSVLEECELIDKFKQKIIDFVNFPRCGVPFRRANKYFHFYNSGLQAQNVFQMQDDLDGKPEVLYDPNLREGGRSGLSLYSVSEDAKYFAFGIHSGLTEWVTIKILKTEDRSYLPDTLEWVKFSPAIWTHDNKGFFYCPYPPLKEGEDHMTRSAVNQEARYHFLGTDQSEDILLWRDLENPAHHLKCQITDDGKYFLLYILDGCDDANKVYCLDLTKLPNGLESFRGREDSAPFMKLIDSFDASYTAIANDGSVFTFQTNKDAPRKKLVRVDLNNPSVWTDLVPESKKDLLESAHAVNENQLILRYLSDVKHVLEIRDLESGALQHRLPIDIGSVDGITARRRDSVVFFKFTSILTPGIVYQCDLKNDPTQLKIFRESVVPDFDRSEFEVKQVFVPSKDGTKIPIFIAARKGISLDGSHPCEMHGYGGFGINMMPTFSASRIVFLKHLGGVFCLANIRGGGEYGEEWHKAGFRDKKQNVFDDFISAAEYLISSGYTKARRVAIEGGANGGLLVAACINQRPDLFGCAEANCGVMDMLRFHKFTLGYLWTGDYGCSDKEEEFKWLIKYSPIHNVRRPWEQPGNEETQYPATMILTADHDDRVVPLHSFKLLATMQHVLCTSLEDSPQKNPIIARIQRKAAHYGRATMTQIAEVADRYGFMAKALEAPWID
For B1, the “relative activity of PCY1 variant (in words)” value in the data set with PresegB1 was “inactive”.

B2: 35mer substrate (GmAMA1) (peptide)
peptide: MFDTNATRLPIWGIGCNPWTAEHVDQTLASGNDIC
modifications: not checked
In data set [10], B2 yielded a Kd of 120 nM. This lies in the sub-micromolar range.

The values above are taken from patent publication US20200291444A1, “Macrocyclisation Tags” (Oxford University Innovation LTD, priority 2017, published 2020).
